Reference: PMC11694070, “Development of 6-amido-4-aminoisoindolyn-1,3-diones as p70S6K1 inhibitors and potential breast cancer therapeutics” (Frontiers in Molecular Biosciences, 2024)
pIC50: −log10 of the molar value.

How the values were obtained:
[1] = set-up: method as in Li et al., 2010; Motzer et al., 2015; Tolcher et al., 2014; details: given with erlotinib and everolimus; ref Li et al., 2010; Motzer et al., 2015; Tolcher et al., 2014; cited from earlier work
[2] = set-up: method as in Pearce et al., 2010; Segatto et al., 2016; details: ref Pearce et al., 2010, Segatto et al., 2016, cited from earlier work
p70S6K1 = p70S6K1 (Homo sapiens, UniProt P23443); assay: Z′-LYTE biochemical kinase inhibition assay (SelectScreen, Thermo Fisher); details: for inhibition at 10 µM: 10 µM compound concentration, high-throughput single-concentration screen; for pIC50 / IC50 of inhibition of p70S6K1: 10-point titration, 3-fold dilutions from 25 μM
Sequence of p70S6K1 (P23443 24-525): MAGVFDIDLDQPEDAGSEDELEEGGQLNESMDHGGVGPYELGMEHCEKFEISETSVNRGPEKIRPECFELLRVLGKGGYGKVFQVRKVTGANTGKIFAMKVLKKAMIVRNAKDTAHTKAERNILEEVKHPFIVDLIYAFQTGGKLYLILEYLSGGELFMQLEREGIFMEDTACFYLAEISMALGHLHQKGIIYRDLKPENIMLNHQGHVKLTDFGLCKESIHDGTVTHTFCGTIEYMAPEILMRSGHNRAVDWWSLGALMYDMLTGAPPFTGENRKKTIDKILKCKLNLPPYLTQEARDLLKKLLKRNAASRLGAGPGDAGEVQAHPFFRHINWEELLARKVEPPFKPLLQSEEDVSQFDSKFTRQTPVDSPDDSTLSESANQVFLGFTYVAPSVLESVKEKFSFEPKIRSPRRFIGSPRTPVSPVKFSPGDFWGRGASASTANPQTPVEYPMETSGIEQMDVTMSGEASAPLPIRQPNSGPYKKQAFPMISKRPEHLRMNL
Method: The high-throughput and dose-response curve assays against kinases were performed using the services of SelectScreen™ Biochemical Kinase Profiling Service by Thermo Fisher Scientific (Table 2; Supplementary Figure S13). The Z ´-LYTE biochemical assay employs a fluorescence-based, coupled-enzyme format based on the differential sensitivity of phosphorylated and non-phosphorylated peptides to proteolytic cleavage. The peptide substrate is labeled with two fluorophores—one at each end—that make up a fluorescence resonance energy transfer (FRET) pair. In the primary reaction, the kinase transfers the gamma-phosphate of ATP to a single tyrosine, serine, or threonine residue in a synthetic FRET-peptide. In the secondary reaction, a site-specific protease recognizes and cleaves non-phosphorylated FRET peptides. Phosphorylation of FRET-peptides suppresses cleavage by the development reagent. Cleavage disrupts FRET between the donor (i.e., coumarin) and acceptor (i.e., fluorescein) fluorophores on the FRET-peptide, whereas uncleaved, phosphorylated FRET-peptides maintain FRET. A ratiometric method, which calculates the emission ratio of donor emission to acceptor emission after excitation of the donor fluorophore at 400 nm, is used to quantitate reaction progress, as shown in the equation below.” Emission ratio=Coumarin emission 445 nm/Flourescein emission 520 nm.
The test compounds were screened in 1% DMSO (final) in the well. For 10-point titrations, 3-fold serial dilutions were conducted from the starting concentration of 25 μM.
All peptide/kinase mixtures are diluted to a 2× working concentration in the appropriate kinase Buffer. The 2X RPS6KB1 (p70S6K)/Ser/Thr 07 mixture is prepared in 50 mM HEPES pH 7.5, 0.01% BRIJ-35, 10 mM MgCl2, 1 mM EGTA. The final 10 µL kinase reaction consists of 2.87–17.7 ng RPS6KB1 (p70S6K) and 2 µM Ser/Thr 07 in 50 mM HEPES pH 7.5, 0.01% BRIJ-35, 10 mM MgCl2, 1 mM EGTA. After the 1 h kinase reaction incubation, 5 µL of a 1:45000 dilution of Development Reagent A is added.
All ATP Solutions are diluted to a 4X working concentration in kinase buffer (50 mM HEPES pH 7.5, 0.01% BRIJ-35, 10 mM MgCl2, 1 mM EGTA). ATP Km apparent was previously determined using a Z′-LYTE assay.
Bar-coded Corning, low volume NBS, black 384-well plate (Corning Cat. #4514). • 1. 100 nL 100X test compound in 100% DMSO • 2. 2.4 µL kinase buffer • 3. 5 μL 2X peptide/kinase mixture • 4. 2.5 µL 4X ATP solution • 5. 30-s plate shake • 6. 60-min kinase reaction incubation at room temperature • 7. 5 μL Development Reagent solution • 8. 30-s plate shake • 9. 60-min Development Reaction incubation at room temperature • 10. Read on the fluorescence plate reader and analyze the data
The SelectScreenTM Biochemical Kinase Profiling Service by ThermoFisher Scientific was used to perform a high-throughput kinase inhibition assay at a single concentration as well as 10-point titrations to generate the dose-response curves for IC50 calculations. The Z′-LYTE biochemical assay, which is a FRET-based assay, was used to analyze the compounds for p70S6K1 inhibition. Compounds 5a–f were subjected to an initial high-throughput screening against p70S6K1 at 10 µM concentration (Table 1).

MCF7 E3 cells = assay: MCF-7 E3 cell proliferation assay (alamarBlue); type: cell-based; details: Homo sapiens, 10 μM compound, in the presence of E2 (10^−10 M), estrogen-deprived cells
Method: Human breast tumor cells MCF-7 subclone E3 were routinely maintained in DMEM medium (Mediatech) supplemented with non-essential amino acid (Gibco), sodium pyruvate (Gibco), L-glutamine (Gibco), gentamicin (Gibco), and 10% fetal bovine serum (FBS) (Hyclone). For the proliferation experiment, the MCF-7 monolayer was dispersed into suspension in DMEM medium with 10% FBS, and 5 × 10^5 cells were seeded into a T-25 flask. The medium was aspirated from the cells, washed with phosphate buffer saline, and cultured with DMEM medium containing dextran-coated charcoal (DCC) FBS for 6 days. After 6 days, the cells were dispersed into suspension, counted, and 1.8 × 10^4 cells per well in a 100 µL DCC medium was subcultured into 96-well plates. After 24 h incubation, the medium was aspirated and replaced with the test compound at 10^−5 M. The cells were dosed again after 3 days and grown for another 3 days. Measurement for cell proliferation was performed with alamarBlue (Bio-Rad) on a plate reader (BioTek Synergy Neo2) with 560 nm excitation and 590 nm emission. The experiments were performed in quadruplicate.
The MCF7 cell line is often used in studies involving ERα overexpressing BC. It is well-established that overexpression of estrogen leads to overexpression of p70S6K1 due to the costimulatory relationship between them, thereby driving the progression of BC ([Fullwood et al., 2009]; [Maruani et al., 2012]). The knockdown or absence of estrogen was partially abrogated by p70S6K1 rescuing and promoting ERα activity ([Holz, 2012]; [Yamnik et al., 2009]). For these reasons, MCF7 cells were used for the proliferation studies in the presence of our p70S6K1 inhibitors. MCF7 E3 cells were grown under estrogen-deprived conditions and treated with 10 μM concentrations of the compounds with and without E2 (10^−10 M). The proliferation was measured using alamarBlue (Figure 5). Compound 5b, with the best p70S6K1 inhibition potency of 0.4 μM IC50 value, inhibited the proliferation of MCF7 E3 cells by 60% in the presence of E2. […] The trend of MCF7 E3 proliferation was directly proportional to the p70S6K1 inhibition potency.

cervical cancer cells = test system: cervical cancer cells; set-up: method as in Nam et al., 2019; details: ref Nam et al., 2019; cited from earlier work
[3] = test system: rpS6 phosphorylation (S235/236, S240/244); assay: Western blot of rpS6 and phospho-rpS6 in MCF7 cells; type: cell-based, Human; details: MCF7 cells estrogen deprived, 5 µM and 10 µM, with β estradiol, 24 h and 48 h
Method: Total proteins were isolated using standard protocols as previously described ([Greenberg et al., 2022]; [Kim H. et al., 2013]). In brief, ice-cold RIPA lysis buffer containing phosphatase and protease inhibitors (Santa Cruz Biotechnology, Dallas, TX, USA) was used to lyse cells. The clarified lysate protein concentration was measured using Bradford reagent (Thermo Scientific, Waltham, MA, USA). The proteins were separated using a 4%–20% SDS-PAGE gradient gel and transferred onto a PVDF membrane (Bio-Rad, Hercules, CA, USA). A 1X blocking buffer was used to block the non-specific binding sites. The membranes were washed with Tris-buffered saline (Bio-Rad) containing 0.1% Tween-20 (Sigma-Aldrich, St. Louis, MO, USA). Membranes were incubated overnight with primary antibodies at 4°C. […] Immune complexes were detected with appropriate secondary antibodies from Invitrogen (Camarillo, CA, USA) and Clarity Western ECL Substrate (Bio-Rad), as described ([Greenberg et al., 2022]). […] Results were expressed as the standard error of the mean (±SEM). Significant changes from controls or E2 treated group were determined by a two-tailed Student’s t-test, and p-values of <0.05 were considered significant. […]

Compound	inhibition at 10 µM (p70S6K1) [%]	pIC50 (p70S6K1)	IC50 of inhibition of p70S6K1 (p70S6K1)	inhibition at 10 µM (MCF7 E3 cells) [%]	other results
Cn1cc(-c2ccc(F)c(C(F)(F)F)c2)nc1C1CCN(c2ncnc3[nH]ncc23)CC1 [LY-2584702]					tolerability in Phase I trials [1]: not well-tolerated
CCc1cncnc1N1CCN(Cc2nc3cc(C(F)(F)F)ccc3[nH]2)CC1 [PF-4708671]					tolerability in preclinical studies ([2]; preclinical studies for breast cancer): well-tolerated; blood–brain barrier (BBB) penetration [2]: poor blood–brain barrier (BBB) penetrant
COC(=O)[C@@H](Cc1ccc(O)c(O)c1)OC(=O)/C=C/c1ccc(O)c(O)c1 [Rosmarinic acid methyl ester]					autophagy and apoptotic cell death (cervical cancer cells): increase in autophagy and apoptotic cell death
Nc1cc(NC(=O)Cc2ccc(C(F)(F)F)cc2)cc2c1C(=O)NC2=O [Compound 5c, N-(7-amino-1,3-dioxoisoindolin-5-yl)-2-(4-(trifluoromethyl)phenyl)acetamide]	80	5.26		35	
Nc1cc(N)c2c(c1)C(=O)NC2=O [Compound 4, 4,6-diaminoisoindoline-1,3-dione]	70	5.92			

Now from value to compound, other results behind:

inhibition at 10 µM (p70S6K1) [%]	pIC50 (p70S6K1)	IC50 of inhibition of p70S6K1 (p70S6K1)	Compound	inhibition at 10 µM (MCF7 E3 cells) [%]	other results
22			Nc1cc(NC(=O)C23CC4CC(CC(C4)C2)C3)cc2c1C(=O)NC2=O [Compound 5e, N-(7-amino-1,3-dioxoisoindolin-5-yl)adamantane-1-carboxamide]		
> 90	6.29	sub-micromolar	Nc1cc(NC(=O)Cc2cccc(C(F)(F)F)c2)cc2c1C(=O)NC2=O [Compound 5d, N-(7-amino-1,3-dioxoisoindolin-5-yl)-2-(3-(trifluoromethyl)phenyl)acetamide]	56	
93	6.12	sub-micromolar	Nc1cc(NC(=O)Cc2ccc(Br)cc2)cc2c1C(=O)NC2=O [Compound 5f, N-(7-amino-1,3-dioxoisoindolin-5-yl)-2-(4-bromophenyl)acetamide]	40	
> 90	6.40	sub-micromolar	Nc1cc(NC(=O)Cc2ccccc2)cc2c1C(=O)NC2=O [Compound 5b, N-(7-amino-1,3-dioxoisoindolin-5-yl)-2-phenylacetamide]	60	rpS6 protein expression and phosphorylation (S235/236, S240/244), immunoblot band intensity [3]: significant decreases
